Laboratory results as given in patent publication US9896435B2, “N-pyrrolidinyl,N′-pyrazolyl-urea, thiourea, guanidine and cyanoguanidine compounds as TrkA kinase inhibitors” (Array BioPharma Inc., priority 2012, dated 2018).

What was measured:
[1] = system: off-target kinases in the full kinase panel; assay: KinaseProfiler full kinase panel, overall result; type: biochemical; conditions: for selectivity for inhibiting TrkA versus other kinases in the panel: 10 μM, panel of about 230 kinases; for activity against off-target kinases: concentration of 10 μM
Experimental: (§1) Two representative compounds (Example 2, 14) of the invention were tested for off-target kinase activity at a concentration of 10 μM by Millipore, Inc. in their KinaseProfiler™ service against all the kinases available in their full kinase panel. These compounds were run in duplicate at a concentration of ATP near the Km for each individual kinase according to Millipore's specifications. The results are shown in Table B. Data are reported as percent of control (POC) and are the average of the two replicates.
Such a drug profile would represent a safer approach to treating pain, inflammation, cancer and certain skin diseases than has been previously reported.

[2] = molecular target: FGFR2 (Homo sapiens (Human), UniProt P21802); assay: KinaseProfiler off-target kinase profiling; type: biochemical; conditions: 10 μM, ATP near Km
Chain of FGFR2 (P21802 22-821): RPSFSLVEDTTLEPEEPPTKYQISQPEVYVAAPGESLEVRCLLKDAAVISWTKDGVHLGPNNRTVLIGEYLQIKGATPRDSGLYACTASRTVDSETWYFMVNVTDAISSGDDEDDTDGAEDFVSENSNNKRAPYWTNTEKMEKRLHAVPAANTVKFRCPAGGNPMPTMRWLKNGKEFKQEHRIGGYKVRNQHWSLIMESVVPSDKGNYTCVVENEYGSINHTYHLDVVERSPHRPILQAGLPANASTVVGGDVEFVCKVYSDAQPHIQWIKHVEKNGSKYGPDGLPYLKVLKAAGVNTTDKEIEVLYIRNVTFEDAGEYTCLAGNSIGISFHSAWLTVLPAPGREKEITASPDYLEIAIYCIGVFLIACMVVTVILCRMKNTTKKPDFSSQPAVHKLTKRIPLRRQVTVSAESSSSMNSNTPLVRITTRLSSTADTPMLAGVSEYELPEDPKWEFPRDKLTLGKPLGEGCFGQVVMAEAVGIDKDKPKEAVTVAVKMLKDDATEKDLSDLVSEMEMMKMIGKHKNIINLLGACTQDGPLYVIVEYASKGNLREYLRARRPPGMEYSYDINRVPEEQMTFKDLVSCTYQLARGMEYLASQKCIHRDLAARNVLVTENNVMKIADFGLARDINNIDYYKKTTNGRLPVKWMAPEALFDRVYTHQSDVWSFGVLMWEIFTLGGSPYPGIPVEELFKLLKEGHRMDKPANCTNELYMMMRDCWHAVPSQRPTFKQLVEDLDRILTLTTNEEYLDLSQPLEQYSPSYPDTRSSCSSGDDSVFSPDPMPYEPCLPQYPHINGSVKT
Experimental: as §1

[3] = molecular target: EphB4 (Homo sapiens (Human), UniProt P54760); assay: KinaseProfiler off-target kinase profiling; type: biochemical; conditions: 10 μM, ATP near Km
Experimental: as §1

[4] = molecular target: p38gamma (Homo sapiens (Human), UniProt P53778); assay: KinaseProfiler off-target kinase profiling; type: biochemical; conditions: 10 μM, ATP near Km
Experimental: as §1

[5] = molecular target: GRK6 (Homo sapiens (Human), UniProt P43250); assay: KinaseProfiler off-target kinase profiling; type: biochemical; conditions: 10 μM, ATP near Km
Chain of GRK6 (P43250 whole entry): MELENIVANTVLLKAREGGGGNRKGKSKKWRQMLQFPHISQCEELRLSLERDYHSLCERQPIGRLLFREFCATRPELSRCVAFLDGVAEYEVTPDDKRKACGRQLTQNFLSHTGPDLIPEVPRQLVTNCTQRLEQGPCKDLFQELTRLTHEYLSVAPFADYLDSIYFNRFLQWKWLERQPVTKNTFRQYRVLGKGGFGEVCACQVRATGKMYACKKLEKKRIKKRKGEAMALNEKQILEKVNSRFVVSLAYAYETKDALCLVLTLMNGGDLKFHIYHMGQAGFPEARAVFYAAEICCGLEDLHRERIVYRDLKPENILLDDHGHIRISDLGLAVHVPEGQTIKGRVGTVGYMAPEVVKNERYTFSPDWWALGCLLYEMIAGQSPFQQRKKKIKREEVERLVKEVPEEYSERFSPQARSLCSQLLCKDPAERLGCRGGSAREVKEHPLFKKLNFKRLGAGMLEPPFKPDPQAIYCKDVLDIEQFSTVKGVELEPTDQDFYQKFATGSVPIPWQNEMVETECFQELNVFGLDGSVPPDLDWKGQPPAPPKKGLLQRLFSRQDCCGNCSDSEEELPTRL
Experimental: as §1

[6] = molecular target: SGK1 (Homo sapiens (Human), UniProt O00141); assay: KinaseProfiler off-target kinase profiling; type: biochemical; conditions: 10 μM, ATP near Km
Experimental: as §1

[7] = molecular target: CAMK2b (Homo sapiens (Human), UniProt Q13554); assay: KinaseProfiler off-target kinase profiling; type: biochemical; conditions: 10 μM, ATP near Km
Experimental: as §1

[8] = molecular target: JNK1alpha1 (Homo sapiens (Human), UniProt P45983); assay: KinaseProfiler off-target kinase profiling; type: biochemical; conditions: 10 μM, ATP near Km
Experimental: as §1

[9] = molecular target: TNK2 (Homo sapiens (Human), UniProt Q07912); assay: KinaseProfiler off-target kinase profiling; type: biochemical; conditions: 10 μM, ATP near Km
Chain of TNK2 (Q07912 whole entry): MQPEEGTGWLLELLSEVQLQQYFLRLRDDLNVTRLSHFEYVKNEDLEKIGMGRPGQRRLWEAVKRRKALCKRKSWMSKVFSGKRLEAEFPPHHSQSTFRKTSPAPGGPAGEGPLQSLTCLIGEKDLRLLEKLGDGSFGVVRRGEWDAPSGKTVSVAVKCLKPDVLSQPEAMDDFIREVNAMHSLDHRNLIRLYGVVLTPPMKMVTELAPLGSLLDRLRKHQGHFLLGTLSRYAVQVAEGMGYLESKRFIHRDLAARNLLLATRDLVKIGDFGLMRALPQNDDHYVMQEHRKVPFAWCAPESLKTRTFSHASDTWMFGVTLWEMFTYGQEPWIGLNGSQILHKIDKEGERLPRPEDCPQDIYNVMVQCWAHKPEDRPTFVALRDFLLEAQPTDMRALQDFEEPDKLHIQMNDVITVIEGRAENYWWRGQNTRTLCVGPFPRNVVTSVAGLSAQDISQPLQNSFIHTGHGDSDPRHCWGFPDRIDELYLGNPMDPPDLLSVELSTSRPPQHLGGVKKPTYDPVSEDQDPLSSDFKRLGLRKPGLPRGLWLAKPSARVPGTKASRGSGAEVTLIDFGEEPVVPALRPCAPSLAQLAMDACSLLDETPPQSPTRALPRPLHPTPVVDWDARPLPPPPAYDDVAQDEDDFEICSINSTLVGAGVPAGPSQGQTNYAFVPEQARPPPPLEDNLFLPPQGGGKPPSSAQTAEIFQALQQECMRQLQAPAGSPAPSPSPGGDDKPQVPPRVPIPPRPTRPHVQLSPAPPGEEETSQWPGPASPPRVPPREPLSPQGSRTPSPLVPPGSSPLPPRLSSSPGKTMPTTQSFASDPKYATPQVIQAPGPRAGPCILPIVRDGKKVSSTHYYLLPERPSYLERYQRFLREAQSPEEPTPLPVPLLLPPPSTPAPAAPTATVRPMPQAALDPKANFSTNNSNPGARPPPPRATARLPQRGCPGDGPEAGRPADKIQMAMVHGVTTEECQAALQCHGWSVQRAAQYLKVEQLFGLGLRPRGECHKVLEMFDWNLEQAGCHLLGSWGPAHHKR
Experimental: as §1

[10] = molecular target: Tie2 (Homo sapiens (Human), UniProt Q02763); assay: KinaseProfiler off-target kinase profiling; type: biochemical; conditions: 10 μM, ATP near Km
Experimental: as §1

[11] = molecular target: ERK1 (Homo sapiens (Human), UniProt P27361); assay: KinaseProfiler off-target kinase profiling; type: biochemical; conditions: 10 μM, ATP near Km
Experimental: as §1

[12] = molecular target: Abl-P (Homo sapiens (Human), UniProt P00519); assay: KinaseProfiler off-target kinase profiling; type: biochemical; conditions: 10 μM, ATP near Km
Experimental: as §1

[13] = molecular target: Met (Homo sapiens (Human), UniProt P08581); assay: KinaseProfiler off-target kinase profiling; type: biochemical; conditions: 10 μM, ATP near Km
Experimental: as §1

[14] = molecular target: CAMK2d (Homo sapiens (Human), UniProt Q13557); assay: KinaseProfiler off-target kinase profiling; type: biochemical; conditions: 10 μM, ATP near Km
Experimental: as §1

[15] = molecular target: LOK (Homo sapiens (Human), UniProt O94804); assay: KinaseProfiler off-target kinase profiling; type: biochemical; conditions: 10 μM, ATP near Km
Experimental: as §1

[16] = molecular target: TAO2 (Homo sapiens (Human), UniProt Q9UL54); assay: KinaseProfiler off-target kinase profiling; type: biochemical; conditions: 10 μM, ATP near Km
Experimental: as §1

[17] = molecular target: Yes (Homo sapiens (Human), UniProt P07947); assay: KinaseProfiler off-target kinase profiling; type: biochemical; conditions: 10 μM, ATP near Km
Chain of Yes (P07947 whole entry): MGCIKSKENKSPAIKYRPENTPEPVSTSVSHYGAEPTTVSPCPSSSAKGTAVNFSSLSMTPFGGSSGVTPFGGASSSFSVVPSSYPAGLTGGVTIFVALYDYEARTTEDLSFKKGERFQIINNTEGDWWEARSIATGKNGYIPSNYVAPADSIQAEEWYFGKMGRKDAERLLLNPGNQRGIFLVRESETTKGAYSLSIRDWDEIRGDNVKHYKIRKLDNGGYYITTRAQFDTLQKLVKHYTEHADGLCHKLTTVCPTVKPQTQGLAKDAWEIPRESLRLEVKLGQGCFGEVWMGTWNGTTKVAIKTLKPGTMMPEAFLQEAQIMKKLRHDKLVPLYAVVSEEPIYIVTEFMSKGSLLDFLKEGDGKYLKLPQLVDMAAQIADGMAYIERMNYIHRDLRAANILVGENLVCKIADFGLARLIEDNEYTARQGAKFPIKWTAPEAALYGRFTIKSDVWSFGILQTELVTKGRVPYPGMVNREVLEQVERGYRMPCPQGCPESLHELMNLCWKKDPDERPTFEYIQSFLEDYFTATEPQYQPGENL
Experimental: as §1

[18] = molecular target: ARK5 (Homo sapiens (Human), UniProt O60285); assay: KinaseProfiler off-target kinase profiling; type: biochemical; conditions: 10 μM, ATP near Km
Experimental: as §1

[19] = molecular target: Axl (Homo sapiens (Human), UniProt P30530); assay: KinaseProfiler off-target kinase profiling; type: biochemical; conditions: 10 μM, ATP near Km
Experimental: as §1

[20] = molecular target: PDK1 (Homo sapiens (Human), UniProt O15530); assay: KinaseProfiler off-target kinase profiling; type: biochemical; conditions: 10 μM, ATP near Km
Experimental: as §1

[21] = molecular target: AKT2 (Homo sapiens (Human), UniProt P31751); assay: KinaseProfiler off-target kinase profiling; type: biochemical; conditions: 10 μM, ATP near Km
Chain of AKT2 (P31751 whole entry): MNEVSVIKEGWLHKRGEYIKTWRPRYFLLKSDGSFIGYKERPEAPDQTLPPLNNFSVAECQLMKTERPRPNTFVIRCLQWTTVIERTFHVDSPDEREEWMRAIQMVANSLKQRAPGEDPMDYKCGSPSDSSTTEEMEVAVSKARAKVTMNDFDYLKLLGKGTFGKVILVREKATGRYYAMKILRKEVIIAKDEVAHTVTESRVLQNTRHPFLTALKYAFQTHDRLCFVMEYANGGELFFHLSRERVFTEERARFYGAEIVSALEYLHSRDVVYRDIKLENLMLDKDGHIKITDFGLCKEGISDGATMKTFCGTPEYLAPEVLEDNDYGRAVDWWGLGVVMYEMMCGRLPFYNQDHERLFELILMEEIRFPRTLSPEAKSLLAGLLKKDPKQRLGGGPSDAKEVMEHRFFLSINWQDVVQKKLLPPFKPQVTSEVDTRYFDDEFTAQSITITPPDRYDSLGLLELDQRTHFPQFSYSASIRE
Experimental: as §1

[22] = molecular target: CSK (Homo sapiens (Human), UniProt P41240); assay: KinaseProfiler off-target kinase profiling; type: biochemical; conditions: 10 μM, ATP near Km
Experimental: as §1

[23] = molecular target: TAK1 (Homo sapiens (Human), UniProt O43318); assay: KinaseProfiler off-target kinase profiling; type: biochemical; conditions: 10 μM, ATP near Km
Experimental: as §1

[24] = molecular target: BrSK2 (Homo sapiens (Human), UniProt Q8IWQ3); assay: KinaseProfiler off-target kinase profiling; type: biochemical; conditions: 10 μM, ATP near Km
Experimental: as §1

[25] = molecular target: Plk3 (Homo sapiens (Human), UniProt Q9H4B4); assay: KinaseProfiler off-target kinase profiling; type: biochemical; conditions: 10 μM, ATP near Km
Experimental: as §1

[26] = molecular target: p38beta (Homo sapiens (Human), UniProt Q15759); assay: KinaseProfiler off-target kinase profiling; type: biochemical; conditions: 10 μM, ATP near Km
Experimental: as §1

[27] = molecular target: Fgr (Homo sapiens (Human), UniProt P09769); assay: KinaseProfiler off-target kinase profiling; type: biochemical; conditions: 10 μM, ATP near Km
Experimental: as §1

[28] = molecular target: CAMK2g (Homo sapiens (Human), UniProt Q13555); assay: KinaseProfiler off-target kinase profiling; type: biochemical; conditions: 10 μM, ATP near Km
Chain of CAMK2g (Q13555 whole entry): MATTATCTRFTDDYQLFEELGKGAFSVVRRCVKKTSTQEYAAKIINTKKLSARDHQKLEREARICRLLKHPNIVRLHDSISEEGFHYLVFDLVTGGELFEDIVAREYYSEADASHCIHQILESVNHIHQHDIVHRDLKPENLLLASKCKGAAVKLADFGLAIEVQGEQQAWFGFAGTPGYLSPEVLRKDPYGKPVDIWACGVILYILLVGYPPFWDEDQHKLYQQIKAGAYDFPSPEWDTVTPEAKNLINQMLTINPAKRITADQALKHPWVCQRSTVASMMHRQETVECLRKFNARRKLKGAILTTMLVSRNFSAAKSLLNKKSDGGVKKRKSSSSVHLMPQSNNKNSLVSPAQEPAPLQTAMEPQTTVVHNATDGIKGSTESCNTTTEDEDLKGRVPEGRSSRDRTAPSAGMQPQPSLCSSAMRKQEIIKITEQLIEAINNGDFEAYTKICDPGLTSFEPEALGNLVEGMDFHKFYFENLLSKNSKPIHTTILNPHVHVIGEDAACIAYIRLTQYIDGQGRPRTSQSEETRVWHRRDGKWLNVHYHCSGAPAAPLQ
Experimental: as §1

[29] = molecular target: PKCeta (Homo sapiens (Human), UniProt P24723); assay: KinaseProfiler off-target kinase profiling; type: biochemical; conditions: 10 μM, ATP near Km
Experimental: as §1

[30] = molecular target: eEF-2K (Homo sapiens (Human), UniProt O00418); assay: KinaseProfiler off-target kinase profiling; type: biochemical; conditions: 10 μM, ATP near Km
Experimental: as §1

[31] = molecular target: MEK1 (Homo sapiens (Human), UniProt Q02750); assay: KinaseProfiler off-target kinase profiling; type: biochemical; conditions: 10 μM, ATP near Km
Chain of MEK1 (Q02750 whole entry): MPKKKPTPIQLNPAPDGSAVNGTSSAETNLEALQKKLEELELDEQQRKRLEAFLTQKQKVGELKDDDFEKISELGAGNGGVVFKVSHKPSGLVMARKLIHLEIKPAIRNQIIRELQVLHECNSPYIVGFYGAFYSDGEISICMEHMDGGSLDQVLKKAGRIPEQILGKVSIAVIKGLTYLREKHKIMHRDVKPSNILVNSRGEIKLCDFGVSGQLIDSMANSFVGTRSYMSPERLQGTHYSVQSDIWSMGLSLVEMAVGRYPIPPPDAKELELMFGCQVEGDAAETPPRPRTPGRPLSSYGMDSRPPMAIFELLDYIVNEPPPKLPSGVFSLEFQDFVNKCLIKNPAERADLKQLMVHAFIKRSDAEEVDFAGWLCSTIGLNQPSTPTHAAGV
Experimental: as §1

[32] = molecular target: His-tagged recombinant human TrkA (Homo sapiens (Human), UniProt P04629); assay: TrkA LanthaScreen Eu Kinase Binding Assay; conditions: averaged IC50; LanthaScreen binding assay of Example A; read-out: TrkA Enzyme IC50
Chain of His-tagged recombinant human TrkA (P04629 440-796): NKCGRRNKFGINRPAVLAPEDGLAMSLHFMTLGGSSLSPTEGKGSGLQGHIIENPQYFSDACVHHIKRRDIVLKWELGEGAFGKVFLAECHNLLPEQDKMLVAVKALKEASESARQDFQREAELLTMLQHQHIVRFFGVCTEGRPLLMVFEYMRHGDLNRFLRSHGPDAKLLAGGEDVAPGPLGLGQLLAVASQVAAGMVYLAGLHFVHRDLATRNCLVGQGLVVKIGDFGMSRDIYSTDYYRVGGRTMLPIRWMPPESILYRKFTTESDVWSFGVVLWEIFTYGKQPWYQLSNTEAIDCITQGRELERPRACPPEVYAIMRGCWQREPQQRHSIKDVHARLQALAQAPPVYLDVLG
Experimental: TrkA binding activity was determined in a TrkA LanthaScreen™ Eu Kinase Binding Assay. 5 nM His-tagged recombinant human TrkA (6HIS tagged cytoplasmic domain from Invitrogen, Catalog No. PV3144) was incubated with 4 nM Alexa-Fluor® Tracer 236 (Invitrogen Cat. No. PV5592), 2 nM biotinylated anti-His (Invitrogen Cat. No. PV6090), and 2 nM europium-labeled Streptavidin (Invitrogen Cat. No. PV5899), in buffer (25 mM MOPS, pH 7.5, 5 mM MgCl2, 0.005% Triton X-100). Three fold serial dilutions of compounds of the invention in DMSO were added to a final percentage of 2% DMSO. After 60-minute incubation at 22° C., the reaction was measured using the EnVision mutlimode plate reader (PerkinElmer) via TR-FRET dual wavelength detection at […]. The percent of control was calculated using a ratiometric emission factor. The IC50 values were determined by fitting a four parameter model to the percent of control data.
Table A provides averaged IC50 values for compounds of the invention when tested in the assay of Example A, where A represents an averaged IC50 value<100 nM.

SMILES	selectivity for inhibiting TrkA versus other kinases in the panel [1]	activity against off-target kinases [1]	Avg POC [2] [POC]	Avg POC [3] [POC]	Avg POC [4] [POC]	Avg POC [5] [POC]	Avg POC [6] [POC]	Avg POC [7] [POC]	Avg POC [8] [POC]	Avg POC [9] [POC]	Avg POC [10] [POC]	Avg POC [11] [POC]	Avg POC [12] [POC]	Avg POC [13] [POC]	Avg POC [14] [POC]	Avg POC [15] [POC]	Avg POC [16] [POC]	Avg POC [17] [POC]	Avg POC [18] [POC]	Avg POC [19] [POC]	other results
COCCN1C[C@@H](NC(=O)Nc2c(C)c(-c3ccnc(C)c3)nn2-c2ccccc2)[C@H](c2ccc(F)c(F)c2)C1 [Example 2, 1-((3S,4R)-4-(3,4-difluorophenyl)-1-(2-methoxyethyl)pyrrolidin-3-yl)-3-(4-methyl-3-(2-methylpyridin-4-yl)-1-phenyl-1H-pyrazol-5-yl)urea]	remarkable and unexpected selectivity	largely inactive	91.5	104	92	96.5	98.5	90.5	98	109.5	71.5	103	113.5	106	91.5	109	97	104	89	117	Avg POC [20]: 94.5 POC; Avg POC [21]: 113 POC; Avg POC [22]: 113 POC; Avg POC [23]: 93 POC; Avg POC [24]: 93 POC; Avg POC [25]: 101 POC; Avg POC [26]: 101.5 POC; Avg POC [27]: 108.5 POC; Avg POC [28]: 89.5 POC; Avg POC [29]: 108.5 POC; Avg POC [30]: 98.5 POC; Avg POC [31]: 100.5 POC; IC50 [32]: < 0.1 µM
COCCN1C[C@@H](NC(=O)Nc2c(C)c(-c3cnc(C)nc3)nn2-c2ccccc2)[C@H](c2cc(F)cc(F)c2)C1 [Example 14, 1-((3S,4R)-4-(3,5-difluorophenyl)-1-(2-methoxyethyl)pyrrolidin-3-yl)-3-(4-methyl-3-(2-methylpyrimidin-5-yl)-1-phenyl-1H-pyrazol-5-yl)urea]	remarkable and unexpected selectivity	largely inactive	103	96	92.5	97	99	93	105	97.5	71	78.5	102.5	96.5	105.5	105	102.5	55.5	85	103	Avg POC [20]: 101.5 POC; Avg POC [21]: 119.5 POC; Avg POC [22]: 103 POC; Avg POC [23]: 88 POC; Avg POC [24]: 99 POC; Avg POC [25]: 93.5 POC; Avg POC [26]: 93 POC; Avg POC [27]: 80.5 POC; Avg POC [28]: 99 POC; Avg POC [29]: 100 POC; Avg POC [30]: 103 POC; Avg POC [31]: 91 POC; IC50 [32]: < 0.1 µM
